Measurements taken from US20100063041A1, “NOVEL PHENYLPROPIONIC ACID DERIVATIVES AS PEROXISOME PROLIFERATOR-ACTIVATED GAMMA RECEPTOR MODULATORS, METHOD OF THE SAME, AND PHARMACEUTICAL COMPOSITION COMPRISING THE SAME” (priority 2007, published 2010).

How the values were obtained:
PPAR-γ and Trap220 = target: T1, PPAR-γ and Trap220 (Homo sapiens, UniProt P37231); assay: binding capacity with Trap220 (mammalian two-hybrid assay) in CHO-K1 cells; format: cell-based; conditions: compared to the positive control drug rosiglitazone, FIG. 1
T1 construct: expressed in transfected cells; host or cells: CHO-K1 (CCL-61, ATCC)
T1 sequence (P37231 238-503 limits assumed): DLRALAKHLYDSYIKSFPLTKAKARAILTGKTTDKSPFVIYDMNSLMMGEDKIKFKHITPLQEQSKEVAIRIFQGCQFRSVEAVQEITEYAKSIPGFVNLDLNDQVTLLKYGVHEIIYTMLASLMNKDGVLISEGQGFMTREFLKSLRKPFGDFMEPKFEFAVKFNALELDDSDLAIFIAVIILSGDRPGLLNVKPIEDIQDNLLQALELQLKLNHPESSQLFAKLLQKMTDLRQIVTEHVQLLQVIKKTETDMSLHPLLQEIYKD
Protocol: Following induction of transient intracellular expression of PPAR-γ and Trap220, the binding capacity of the inventive compounds to a cofactor Trap220 after activation of PPAR-γ by the action of the inventive compounds was evaluated (mammalian two-hybrid assay).
For this purpose, a […] ovary cell line CHO-K1 (CCL-61, ATCC) was used as a test cell line. DNA constructs used in this assay were an expression vector pVP16 (Clontech) constructed to express a fusion of a human PPAR-γ2 ligand-binding domain with an activation domain of the […], and an expression vector pM (Clontech) constructed to express a fusion of human Trap220 with the GAL4 DNA-binding domain. Rosiglitazone maleate (Alcon Biosciences Private Limited), which is clinically used as a PPAR-γ agonist, was employed as a control drug.
The CHO-K1 cells were transiently transfected with two DNA constructs expressing the chimeric receptors and DNA constructs comprising 5 copies of the GAL4 DNA-binding domain and capable of inducing expression of firefly luciferase or Renilla luciferase using a Lipofectamine Plus reagent (Invitrogen, USA). Subsequent processes were carried out in the same manner as in the transactivation assay. The experimental results were expressed as an increase of the responsiveness vs. the negative control group with no addition of the drug.

[1] = system: diabetic male mice (db/db mice); assay: blood glucose-lowering effects in mice with hyperglycemic diabetes; format: in vivo; conditions: for % Inhibition vs. Control / Blood glucose D5: oral once a day for 5 days
Protocol: Effects of PPAR compounds on a blood glucose level were evaluated in 7-week-old diabetic male mice (db/db mice). Blood was collected from caudal veins of the diabetic animals to which the drug was administered once a day for 5 consecutive days, and the blood glucose level was then measured with a blood glucose test meter (ACCU CHEK Active®).

Trap220 = conditions: cited from earlier work

Row | SMILES | responsiveness (binding capacity with Trap220) (PPAR-γ and Trap220) | % Inhibition vs. Control ([1]; 1 mg/kg) [%] | Blood glucose D5 ([1]; 1 mg/kg) [mg/dL] | % Inhibition vs. Control ([1]; 3 mg/kg) [%] | Blood glucose D5 ([1]; 3 mg/kg) [mg/dL] | % Inhibition vs. Control ([1]; 10 mg/kg) [%] | Blood glucose D5 ([1]; 10 mg/kg) [mg/dL] | Blood glucose D0 ([1]; oral, 1 mg/kg) [mg/dL] | Blood glucose D0 ([1]; oral, 3 mg/kg) [mg/dL] | Blood glucose D0 ([1]; oral, 10 mg/kg) [mg/dL] | ED30 ([1]; oral, blood glucose) [mg/kg] | binding capacity for Trap220 (Trap220)
1 | CCO[C@@H](Cc1ccc(OCc2sc(-c3ccc(-c4cc(C)no4)cc3)cc2C)cc1)C(=O)[O-].[Na+] [Example 43, sodium (S)-2-ethoxy-3-(4-((3-methyl-5-(4-(3-methylisoxazol-5-yl)phenyl)thiophen-2-yl)methoxy)phenyl)propanoate] | reduced responsiveness |  |  |  |  |  |  |  |  |  |  | 
2 | O=S(=O)(Nc1cc(Cl)c(Oc2cnc3ccccc3c2)c(Cl)c1)c1ccc(Cl)cc1Cl [INT-131, reference compound] |  | 8 | 350 ± 31 | 25 | 286 ± 34 | 38 | 237 ± 19 | 381 ± 30 | 382 ± 31 | 382 ± 28 | 4 | attenuated binding capacity
